Measured values taken from patent US11332459B2 (TEIJIN PHARMA LIMITED, priority 2017, dated 2022).
Structures can show the parent of a compound that is named as a salt.

Target: T1, human TRPC6 (Homo sapiens, UniProt Q9Y210)
T1 construct: expressed in transfected cells
T1 sequence (Q9Y210 1-931): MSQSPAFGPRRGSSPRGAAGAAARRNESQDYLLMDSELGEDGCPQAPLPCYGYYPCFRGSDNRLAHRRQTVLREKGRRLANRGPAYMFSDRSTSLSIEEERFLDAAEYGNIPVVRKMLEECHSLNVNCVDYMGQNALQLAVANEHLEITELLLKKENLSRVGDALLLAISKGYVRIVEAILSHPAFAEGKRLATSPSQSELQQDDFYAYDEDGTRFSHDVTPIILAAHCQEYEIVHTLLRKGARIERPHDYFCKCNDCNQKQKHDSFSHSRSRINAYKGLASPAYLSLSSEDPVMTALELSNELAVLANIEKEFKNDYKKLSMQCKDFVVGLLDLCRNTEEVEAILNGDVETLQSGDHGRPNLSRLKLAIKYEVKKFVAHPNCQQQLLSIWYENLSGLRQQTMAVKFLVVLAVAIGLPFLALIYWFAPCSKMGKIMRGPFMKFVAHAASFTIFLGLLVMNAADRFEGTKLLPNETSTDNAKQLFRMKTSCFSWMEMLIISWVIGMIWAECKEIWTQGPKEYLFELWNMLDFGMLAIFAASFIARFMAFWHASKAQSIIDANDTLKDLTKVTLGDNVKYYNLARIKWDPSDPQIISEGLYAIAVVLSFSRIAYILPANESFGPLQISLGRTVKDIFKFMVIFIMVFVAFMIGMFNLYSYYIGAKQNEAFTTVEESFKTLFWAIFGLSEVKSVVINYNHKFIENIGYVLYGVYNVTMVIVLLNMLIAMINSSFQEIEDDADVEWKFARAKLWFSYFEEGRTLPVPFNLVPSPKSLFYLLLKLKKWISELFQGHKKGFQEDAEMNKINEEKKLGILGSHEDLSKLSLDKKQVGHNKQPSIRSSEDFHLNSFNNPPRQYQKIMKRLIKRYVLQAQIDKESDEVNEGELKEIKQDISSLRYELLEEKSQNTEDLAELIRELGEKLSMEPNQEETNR
Assay: TRPC6 calcium flux assay (FLIPR, OAG-stimulated calcium influx)
Assay type: cell-based
Details: HEK293 cells stably transfected with human TRPC6, read-out: hTRPC6 Potency
Summary of the method: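 HEK293 cells stably expressing human TRPC6, loaded with calcium dye 90–120 min at RT, then given compound for 25 min before OAG (50 uM final, 0.5% DMSO) in HEPES buffer pH 7.2 with 2 mM CaCl2. Background-subtracted FLIPR peak over 180 s normalized to OAG vs buffer; IC50 from dose plot.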

| Molecule | IC50 [nM] |
| --- | --- |
| N[C@@H]1CN(c2nc3cc(F)c(F)cc3n2[C@@H]2CCN(C3CC3)C2=O)CC[C@H]1F [Example 547, (R)-3-(2-((3R,4R)-3-amino-4-fluoropiperidin-1-yl)-5,6-difluoro-1H-benzo[d]imidazol-1-yl)-1-cyclopropylpyrrolidin-2-one] | 43.7 |
| CN[C@@H]1CN(c2nc3cc(F)ccc3n2CC(=O)N(C)CC(F)(F)F)CC[C@H]1F [Example 479, 2-(5-fluoro-2-((3R,4R)-4-fluoro-3-(methylamino)piperidin-1-yl)-1H-benzo[d]imidazol-1-yl)-N-methyl-N-(2,2,2-trifluoroethyl)acetamide] | 1200 |
| N#Cc1ccc(Cn2c(N3CCC(F)(F)[C@H](N)C3)nc3c(C(F)(F)F)cccc32)nc1 [Example 89, (R)-6-((2-(3-amino-4,4-difluoropiperidin-1-yl)-4-(trifluoromethyl)-1H-benzo[d]imidazol-1-yl)methyl)nicotinonitrile] | 368 |
| 4-((2-((3R,4R)-3-amino-4-hydroxypiperidin-1-yl)-1H-benzo[d]imidazol-1-yl)methyl)benzonitrile compound with 4-((2-((3S,4S)-3-amino-4-hydroxypiperidin-1-yl)-1H-benzo[d]imidazol-1-yl)methyl)benzonitrile (1:1) dihydrochloride [Example 155] | 16.2 |
| N[C@@H]1CN(c2nc3cc(F)c(F)cc3n2Cc2ccc(F)c(F)c2)CC[C@H]1F [Example 357, (3R,4R)-1-(1-(3,4-difluorobenzyl)-5,6-difluoro-1H-benzimidazol-2-yl)-4-fluoro-3-piperidinamine] | 24.5 |
| N#Cc1ccc(Cn2c(N3CC[C@@](F)(CN)C3)nc3ccccc32)cc1 [Example 174, (R)-4-((2-(3-(aminomethyl)-3-fluoropyrrolidin-1-yl)-1H-benzo[d]imidazol-1-yl)methyl)benzonitrile 2,2,2-trifluoroacetate] | 564 |
| CNC(=O)C1CN(C(=O)Cn2c(N3CC[C@@H](F)[C@H](N)C3)nc3cc(F)c(F)cc32)CCO1 (stereo partly drawn) [Example 644, 4-(2-(2-((3R,4R)-3-amino-4-fluoropiperidin-1-yl)-5,6-difluoro-1H-benzo[d]imidazol-1-yl)acetyl)-N-methylmorpholine-2-carboxamide] | 1910 |
| N[C@@H]1CN(c2nc3cc(F)c(F)cc3n2CC(=O)N2CC3(CCOCC3)C2)CC[C@H]1F [Example 431, 2-(2-((3R,4R)-3-amino-4-fluoropiperidin-1-yl)-5,6-difluoro-1H-benzo[d]imidazol-1-yl)-1-(7-oxa-2-azaspiro[3.5]nonan-2-yl)ethanone] | > 3750 |
| N#Cc1ccc(Cn2c(N3CC[C@@H](F)[C@H](N)C3)nc3cnccc32)cc1 [Example 412, 4-((2-((3R,4R)-3-amino-4-fluoropiperidin-1-yl)-1H-imidazo[4,5-c]pyridin-1-yl)methyl)benzonitrile] | 322 |
| N#Cc1ccc(Cn2c(N3C[C@@H](N)CC(F)(F)C3)nc3ccccc32)nc1 [Example 17, (S)-6-((2-(5-amino-3,3-difluoropiperidin-1-yl)-1H-benzo[d]imidazol-1-yl)methyl)nicotinonitrile] | 118 |
| C[C@H](c1ccc(C#N)cn1)n1c(N2CCC[C@H](N)C2)nc2ccccc21 [Example 295, 6-((R)-1-(2-((S)-3-aminopiperidin-1-yl)-1H-benzo[d]imidazol-1-yl)ethyl)nicotinonitrile hydrochloride] | 5.07 |
| N#Cc1ccc(Cn2c(N3CCC[C@@H](N)C3)nc3ccccc32)cn1 [Example 292, (R)-5-((2-(3-aminopiperidin-1-yl)-1H-benzo[d]imidazol-1-yl)methyl)picolinonitrile 2,2,2-trifluoroacetate] | 62.5 |
| CCc1nc(Cn2c(N3CC[C@@H](F)[C@H](N)C3)nc3cc(F)c(F)cc32)no1 [Example 577, (3R,4R)-1-(1-((5-ethyl-1,2,4-oxadiazol-3-yl)methyl)-5,6-difluoro-1H-benzo[d]imidazol-2-yl)-4-fluoropiperidin-3-amine] | 184 |
| N[C@@H]1CN(c2nc3cc(F)c(F)cc3n2[C@@H]2CCN(C3CCOCC3)C2=O)CC[C@H]1F [Example 550, (R)-3-(2-((3R,4R)-3-amino-4-fluoropiperidin-1-yl)-5,6-difluoro-1H-benzo[d]imidazol-1-yl)-1-(tetrahydro-2H-pyran-4-yl)pyrrolidin-2-one] | > 3750 |
| N[C@@H]1CN(c2nc3ccccc3n2Cc2ncc(F)cn2)CC[C@H]1F [Example 188, (3R,4R)-4-fluoro-1-(1-((5-fluoropyrimidin-2-yl)methyl)-1H-benzo[d]imidazol-2-yl)piperidin-3-amine] | 13 |
| NC(=O)C1CCCN(C(=O)Cn2c(N3CC[C@@H](F)[C@H](N)C3)nc3cc(F)c(F)cc32)C1 (mixture of isomers) [Example 530, 1-(2-(2-((3R,4R)-3-amino-4-fluoropiperidin-1-yl)-5,6-difluoro-1H-benzo[d]imidazol-1-yl)acetyl)piperidine-3-carboxamide] | > 3750 |
| CNC(=O)c1ccc(Cn2c(N3CCC[C@@H](N)C3)nc3ccccc32)cc1 [Example 382, (R)-4-((2-(3-aminopiperidin-1-yl)-1H-benzo[d]imidazol-1-yl)methyl)-N-methylbenzamide] | > 50000 |
| N#Cc1ccc(Cn2c(N3CCC(F)(F)[C@H](N)C3)nc3cc(C(F)(F)F)ccc32)nc1 [Example 109, 6-((2-((3R)-3-amino-4,4-difluoro-1-piperidinyl)-5-(trifluoromethyl)-1H-benzimidazol-1-yl)methyl)-3-pyridinecarbonitrile] | 43.8 |
| Cc1nnc(Cn2c(N3CC[C@@H](F)[C@H](N)C3)nc3ncc(F)cc32)s1 [Example 574, (3R,4R)-4-fluoro-1-(6-fluoro-1-((5-methyl-1,3,4-thiadiazol-2-yl)methyl)-1H-imidazo[4,5-b]pyridin-2-yl)piperidin-3-amine] | 153 |
| C[C@H](c1ccc(Cl)cn1)n1c(N2CC[C@@H](F)[C@H](N)C2)nc2cc(F)c(F)cc21 [Example 217, (3R,4R)-1-(1-((R)-1-(5-chloropyridin-2-yl)ethyl)-5,6-difluoro-1H-benzo[d]imidazol-2-yl)-4-fluoropiperidin-3-amine hydrochloride] | 68.7 |
| CCN(CCOC)C(=O)Cn1c(N2CC[C@@H](F)[C@H](N)C2)nc2ccc(F)cc21 [Example 671, 2-(2-((3R,4R)-3-amino-4-fluoropiperidin-1-yl)-6-fluoro-1H-benzo[d]imidazol-1-yl)-N-ethyl-N-(2-methoxyethyl)acetamide] | 1430 |
| C[C@H](c1ccc(OC(F)(F)F)cc1)n1c(N2CC[C@@H](F)[C@H](N)C2)nc2cc(F)c(F)cc21 [Example 337, (3R,4R)-1-(5,6-difluoro-1-((1R)-1-(4-(trifluoromethoxy)phenyl)ethyl)-1H-benzimidazol-2-yl)-4-fluoro-3-piperidinamine] | > 3750 |
| NC(=O)c1cnc(Cn2c(N3CC[C@@H](F)[C@H](N)C3)nc3ccc(C(F)(F)F)cc32)cn1 [Example 134, 5-((2-((3R,4R)-3-amino-4-fluoro-1-piperidinyl)-6-(trifluoromethyl)-1H-benzimidazol-1-yl)methyl)-2-pyrazinecarboxamide] | 4.71 |
| N#Cc1ccc(Cn2c(N3CC[C@@H](F)[C@H](N)C3)nc3cc(F)cc(F)c32)nc1 [Example 64, 6-((2-((3R,4R)-3-amino-4-fluoropiperidin-1-yl)-5,7-difluoro-1H-benzo[d]imidazol-1-yl)methyl)nicotinonitrile] | 132 |
| N[C@@H]1CCCN(c2nc3ccccc3n2Cc2ccc(C(F)(F)F)cc2)C1 [Example 375, (R)-1-(1-(4-(trifluoromethyl)benzyl)-1H-benzo[d]imidazol-2-yl)piperidin-3-amine] | 2770 |
| N#Cc1ccc(Cn2c(N3CC[C@@H](F)[C@H](N)C3)nc3ccc(Cl)cc32)cc1 [Example 420, 4-((2-((3R,4R)-3-amino-4-fluoropiperidin-1-yl)-6-chloro-1H-benzo[d]imidazol-1-yl)methyl)benzonitrile hydrochloride] | 0.6 |
| N#Cc1ccc2nc(N3CC[C@@H](F)[C@H](N)C3)n(Cc3cnc(C#N)cn3)c2c1 [Example 249, 2-((3R,4R)-3-amino-4-fluoro-1-piperidinyl)-1-((5-cyano-2-pyrazinyl)methyl)-1H-benzimidazole-6-carbonitrile] | 7.65 |
| CN(CCF)C(=O)Cn1c(N2CC[C@@H](F)[C@H](N)C2)nc2cc(F)c(F)cc21 [Example 606, 2-(2-((3R,4R)-3-amino-4-fluoropiperidin-1-yl)-5,6-difluoro-1H-benzo[d]imidazol-1-yl)-N-(2-fluoroethyl)-N-methylacetamide] | 8.06 |
